Calls of active or inactive are those of the source. The rule behind the calls is not given here.
What was measured:
HT-29 = assay: Antiproliferative activity against human HT-29 cells harboring B-RAF V600E mutant after 72 hrs by SRB assay; format: functional, cell-based; details: HT-29, 72 h
[1] = target: Mitogen-activated protein kinase 1 (Homo sapiens, UniProt P28482); assay: Inhibition of human recombinant GST-tagged ERK2 expressed in Escherichia coli using ser/thr 3 Peptide as substrate preincubated for 1 hr measured after 1 hr by Z-LYTE assay
Mitogen-activated protein kinase 1, sequence (P28482 whole entry): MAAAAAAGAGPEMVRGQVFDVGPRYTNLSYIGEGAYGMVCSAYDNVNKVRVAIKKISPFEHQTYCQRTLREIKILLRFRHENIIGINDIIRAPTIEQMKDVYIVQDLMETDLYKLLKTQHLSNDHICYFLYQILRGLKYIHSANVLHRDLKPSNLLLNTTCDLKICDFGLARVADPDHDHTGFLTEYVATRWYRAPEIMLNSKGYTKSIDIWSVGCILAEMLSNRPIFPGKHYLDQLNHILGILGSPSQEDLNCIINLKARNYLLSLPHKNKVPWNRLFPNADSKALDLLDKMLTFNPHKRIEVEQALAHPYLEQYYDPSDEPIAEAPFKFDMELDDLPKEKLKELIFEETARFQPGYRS

[2] = target: Mitogen-activated protein kinase 3 (Homo sapiens, UniProt P27361); assay: Inhibition of human recombinant GST-tagged ERK1 expressed in Escherichia coli using ser/thr 3 Peptide as substrate preincubated for 1 hr measured after 1 hr by Z-LYTE assay
Mitogen-activated protein kinase 3, sequence (P27361 whole entry): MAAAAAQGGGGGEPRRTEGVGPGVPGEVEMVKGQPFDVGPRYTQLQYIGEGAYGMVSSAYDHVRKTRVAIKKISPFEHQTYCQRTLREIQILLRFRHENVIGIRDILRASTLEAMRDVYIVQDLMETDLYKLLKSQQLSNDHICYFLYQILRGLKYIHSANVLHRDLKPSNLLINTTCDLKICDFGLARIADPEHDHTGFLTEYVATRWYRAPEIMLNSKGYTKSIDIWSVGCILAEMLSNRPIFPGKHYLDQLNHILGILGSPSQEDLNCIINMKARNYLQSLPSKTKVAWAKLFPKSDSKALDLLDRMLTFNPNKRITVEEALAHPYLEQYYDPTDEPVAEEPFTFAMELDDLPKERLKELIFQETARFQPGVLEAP

[3] = target: Dual specificity mitogen-activated protein kinase kinase; MEK1/2 (Homo sapiens) (UniProt P36507+Q02750); assay: Inhibition of ERK phosphorylation in human HT-29 cells after 2 hrs by Western blot analysis; format: cell-based
Dual specificity mitogen-activated protein kinase kinase; MEK1/2 (Homo sapiens), sequence (P36507 whole entry, looked up): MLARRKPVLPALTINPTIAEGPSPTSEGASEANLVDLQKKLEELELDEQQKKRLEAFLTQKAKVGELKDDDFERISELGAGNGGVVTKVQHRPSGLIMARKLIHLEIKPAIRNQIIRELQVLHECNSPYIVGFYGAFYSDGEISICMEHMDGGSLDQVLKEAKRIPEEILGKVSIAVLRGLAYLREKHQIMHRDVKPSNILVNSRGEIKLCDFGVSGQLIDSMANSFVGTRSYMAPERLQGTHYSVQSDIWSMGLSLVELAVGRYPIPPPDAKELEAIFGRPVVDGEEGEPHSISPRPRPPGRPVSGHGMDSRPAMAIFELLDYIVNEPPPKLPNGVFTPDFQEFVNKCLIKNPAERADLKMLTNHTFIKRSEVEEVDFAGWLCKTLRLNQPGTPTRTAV
Dual specificity mitogen-activated protein kinase kinase; MEK1/2 (Homo sapiens), sequence (Q02750 whole entry, looked up): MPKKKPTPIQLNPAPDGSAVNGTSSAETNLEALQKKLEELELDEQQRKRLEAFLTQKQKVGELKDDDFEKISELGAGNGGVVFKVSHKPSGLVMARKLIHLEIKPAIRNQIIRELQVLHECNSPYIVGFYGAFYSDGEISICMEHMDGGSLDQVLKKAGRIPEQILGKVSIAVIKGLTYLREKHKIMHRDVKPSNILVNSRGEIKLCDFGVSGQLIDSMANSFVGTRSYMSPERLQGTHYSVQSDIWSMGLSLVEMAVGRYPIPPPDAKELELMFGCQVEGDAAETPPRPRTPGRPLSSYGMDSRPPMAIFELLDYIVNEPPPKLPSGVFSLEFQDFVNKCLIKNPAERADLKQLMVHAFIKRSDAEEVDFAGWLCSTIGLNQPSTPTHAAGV

[4] = target: Mitogen-activated protein kinase; ERK1/ERK2 (Homo sapiens) (UniProt P27361+P28482); assay: Inhibition of ERK1/ERK2 in human HT-29 cells assessed as reduction in p90RSK phosphorylation after 2 hrs by Western blot analysis; format: cell-based
Mitogen-activated protein kinase; ERK1/ERK2 (Homo sapiens), sequence (P27361 whole entry, looked up): as the sequence (P27361 whole entry) above
Mitogen-activated protein kinase; ERK1/ERK2 (Homo sapiens), sequence (P28482 whole entry, looked up): as the sequence (P28482 whole entry) above

Ephrin type-A receptor 2 = Ephrin type-A receptor 2 (Homo sapiens, UniProt P29317); assay: Inhibition of EPHA2 (unknown origin) by Z-LYTE assay
Ephrin type-A receptor 2, sequence (P29317 whole entry): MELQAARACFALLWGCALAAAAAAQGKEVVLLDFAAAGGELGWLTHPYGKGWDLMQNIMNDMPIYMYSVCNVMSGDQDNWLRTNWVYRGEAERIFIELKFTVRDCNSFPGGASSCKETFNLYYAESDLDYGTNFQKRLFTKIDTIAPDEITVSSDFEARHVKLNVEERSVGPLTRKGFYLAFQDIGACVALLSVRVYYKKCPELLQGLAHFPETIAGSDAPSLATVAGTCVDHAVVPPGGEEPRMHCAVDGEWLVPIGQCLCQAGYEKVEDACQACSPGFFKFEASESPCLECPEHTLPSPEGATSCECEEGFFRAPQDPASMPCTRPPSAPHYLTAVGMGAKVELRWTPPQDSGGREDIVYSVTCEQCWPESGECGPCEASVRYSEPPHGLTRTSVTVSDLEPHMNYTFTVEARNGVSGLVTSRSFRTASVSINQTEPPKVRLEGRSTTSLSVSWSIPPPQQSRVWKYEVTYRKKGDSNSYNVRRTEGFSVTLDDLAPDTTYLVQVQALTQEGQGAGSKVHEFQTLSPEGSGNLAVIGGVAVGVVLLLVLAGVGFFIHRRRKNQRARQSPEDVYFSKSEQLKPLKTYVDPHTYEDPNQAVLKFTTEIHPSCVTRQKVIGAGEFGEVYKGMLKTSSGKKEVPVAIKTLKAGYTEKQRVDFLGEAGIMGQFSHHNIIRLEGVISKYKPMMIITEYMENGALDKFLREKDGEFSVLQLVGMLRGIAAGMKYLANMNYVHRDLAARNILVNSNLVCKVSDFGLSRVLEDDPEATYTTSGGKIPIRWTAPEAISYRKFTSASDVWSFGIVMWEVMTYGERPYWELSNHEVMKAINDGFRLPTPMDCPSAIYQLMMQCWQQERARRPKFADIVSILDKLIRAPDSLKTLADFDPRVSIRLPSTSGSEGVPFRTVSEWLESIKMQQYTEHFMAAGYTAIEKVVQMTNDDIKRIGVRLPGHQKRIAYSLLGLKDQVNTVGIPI

[5] = target: Proto-oncogene tyrosine-protein kinase Src (Homo sapiens, UniProt P12931); assay: Inhibition of c-Src (unknown origin) by Z-LYTE assay
Proto-oncogene tyrosine-protein kinase Src, sequence (P12931 2-536 limits assumed): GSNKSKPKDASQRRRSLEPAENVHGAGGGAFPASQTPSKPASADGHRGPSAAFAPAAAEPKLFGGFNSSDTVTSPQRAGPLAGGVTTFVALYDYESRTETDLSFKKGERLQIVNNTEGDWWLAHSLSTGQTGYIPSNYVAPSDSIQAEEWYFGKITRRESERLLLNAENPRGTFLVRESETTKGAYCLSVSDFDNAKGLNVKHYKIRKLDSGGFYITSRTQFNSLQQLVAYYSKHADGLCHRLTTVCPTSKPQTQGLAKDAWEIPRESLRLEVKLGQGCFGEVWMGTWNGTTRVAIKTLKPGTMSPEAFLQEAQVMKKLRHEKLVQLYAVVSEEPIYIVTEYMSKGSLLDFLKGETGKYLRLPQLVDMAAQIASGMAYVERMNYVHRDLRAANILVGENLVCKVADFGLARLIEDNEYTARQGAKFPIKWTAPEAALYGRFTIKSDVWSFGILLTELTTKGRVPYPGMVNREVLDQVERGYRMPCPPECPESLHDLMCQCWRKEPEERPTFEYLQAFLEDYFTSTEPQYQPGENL

[6] = target: Tyrosine-protein kinase ABL1 (Homo sapiens, UniProt P00519); assay: Inhibition of ABL (unknown origin) by Z-LYTE assay
[7] = target: Platelet-derived growth factor receptor beta (Homo sapiens, UniProt P09619); assay: Inhibition of PDGFRbeta (unknown origin) by Z-LYTE assay
[8] = target: Proto-oncogene tyrosine-protein kinase receptor Ret (Homo sapiens, UniProt P07949); assay: Inhibition of RET (unknown origin) by Z-LYTE assay
[9] = target: Fibroblast growth factor receptor 1 (Homo sapiens, UniProt P11362); assay: Inhibition of FGFR1 (unknown origin) by Z-LYTE assay
[10] = target: Vascular endothelial growth factor receptor 2 (Homo sapiens, UniProt P35968); assay: Inhibition of KDR (unknown origin) by Z-LYTE assay
[11] = target: ALK tyrosine kinase receptor (Homo sapiens, UniProt Q9UM73); assay: Inhibition of ALK (unknown origin) by Z-LYTE assay
[12] = target: Vascular endothelial growth factor receptor 1 (Homo sapiens, UniProt P17948); assay: Inhibition of FLT1 (unknown origin) by Z-LYTE assay
[13] = target: Hepatocyte growth factor receptor (Homo sapiens, UniProt P08581); assay: Inhibition of c-MET (unknown origin) by Z-LYTE assay
Hepatocyte growth factor receptor, sequence (P08581 whole entry): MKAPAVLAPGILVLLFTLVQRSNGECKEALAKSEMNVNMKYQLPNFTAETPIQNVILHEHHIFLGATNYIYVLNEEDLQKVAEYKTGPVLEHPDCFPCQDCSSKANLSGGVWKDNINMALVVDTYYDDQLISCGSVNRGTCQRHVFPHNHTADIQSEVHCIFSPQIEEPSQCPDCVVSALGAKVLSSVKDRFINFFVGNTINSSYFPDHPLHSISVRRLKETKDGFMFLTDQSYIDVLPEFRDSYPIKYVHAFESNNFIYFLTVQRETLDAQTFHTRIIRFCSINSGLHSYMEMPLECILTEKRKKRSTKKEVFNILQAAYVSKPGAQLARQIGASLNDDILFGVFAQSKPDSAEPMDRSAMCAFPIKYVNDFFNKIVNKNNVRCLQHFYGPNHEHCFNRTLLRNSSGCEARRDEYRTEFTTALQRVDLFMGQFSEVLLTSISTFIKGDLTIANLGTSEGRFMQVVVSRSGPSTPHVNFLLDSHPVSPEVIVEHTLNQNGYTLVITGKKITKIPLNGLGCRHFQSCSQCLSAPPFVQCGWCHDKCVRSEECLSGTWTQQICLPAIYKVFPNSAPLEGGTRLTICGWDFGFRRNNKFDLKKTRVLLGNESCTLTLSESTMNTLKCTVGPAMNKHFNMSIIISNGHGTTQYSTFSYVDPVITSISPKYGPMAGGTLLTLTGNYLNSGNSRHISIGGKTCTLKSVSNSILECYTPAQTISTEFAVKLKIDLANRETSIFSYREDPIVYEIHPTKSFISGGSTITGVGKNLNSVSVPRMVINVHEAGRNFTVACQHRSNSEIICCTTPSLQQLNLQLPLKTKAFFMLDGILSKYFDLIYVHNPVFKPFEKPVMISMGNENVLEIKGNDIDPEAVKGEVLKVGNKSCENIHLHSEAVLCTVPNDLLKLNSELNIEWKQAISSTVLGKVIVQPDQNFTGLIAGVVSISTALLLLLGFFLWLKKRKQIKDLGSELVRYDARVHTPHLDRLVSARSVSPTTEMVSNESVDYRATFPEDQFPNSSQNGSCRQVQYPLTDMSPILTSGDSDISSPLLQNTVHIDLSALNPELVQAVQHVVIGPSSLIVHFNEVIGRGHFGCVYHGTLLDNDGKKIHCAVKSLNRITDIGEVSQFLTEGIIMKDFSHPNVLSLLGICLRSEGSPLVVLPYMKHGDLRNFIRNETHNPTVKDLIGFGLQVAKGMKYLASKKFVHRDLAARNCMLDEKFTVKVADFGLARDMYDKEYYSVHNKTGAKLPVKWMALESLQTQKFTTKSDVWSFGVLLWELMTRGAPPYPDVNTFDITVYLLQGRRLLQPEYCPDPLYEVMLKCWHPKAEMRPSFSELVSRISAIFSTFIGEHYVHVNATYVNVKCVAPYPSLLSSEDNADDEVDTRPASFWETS

[14] = target: Epidermal growth factor receptor (Homo sapiens, UniProt P00533); assay: Inhibition of EGFR (unknown origin) by Z-LYTE assay
[15] = target: Insulin-like growth factor 1 receptor (Homo sapiens, UniProt P08069); assay: Inhibition of IGF1R (unknown origin) by Z-LYTE assay
[16] = target: Receptor tyrosine-protein kinase erbB-2 (Homo sapiens, UniProt P04626); assay: Inhibition of ERBB2 (unknown origin) by Z-LYTE assay
[17] = Apparent permeability in human Caco2 cells assessed as Fabs after 95 mins by LC-MS/MS analysis; format: ADME, cell-based; details: caco-2, 95 min
[18] = Oral bioavailability in mouse at 5 mg/kg; format: ADME, organism-based; details: in vivo
[19] = AUC (0 to 24 hrs) in mouse at 5 mg/kg, po; format: ADME, organism-based; parameters: dose 5 mg/kg, time < 24 hr, route oral; details: in vivo
[20] = Clearance in mouse at 5 mg/kg, po or 1 mg/kg, iv; format: ADME, organism-based; details: in vivo
[21] = AUC (0 to 24 hrs) in rat at 10 mg/kg, po; format: ADME, organism-based; parameters: time < 24 hr, dose 10 mg/kg, route oral; details: in vivo

SMILES | IC50 (HT-29) [µM] | IC50 [1] [nM] | IC50 [2] [nM] | further results
Cc1cc(-c2n[nH]c3ccc(C(=O)NC(C)c4ccncc4)cc23)ccn1 (stereo unspecified) | 10.4 | 226 |  | 
O=C(NCCNc1ccccc1)c1ccc2[nH]nc(-c3ccncc3)c2c1 | 6.7 | 139 |  | 
O=C(N[C@@H](CO)c1cccc(Cl)c1)c1ccc2[nH]nc(-c3ccncc3)c2c1 | 16.5 | 219 | 833 | 
CCC(NC(=O)c1ccc2[nH]nc(-c3ccncc3)c2c1)c1cccc(Cl)c1 (stereo unspecified) | 1.5 | 58.9 | 78.7 | 
CC(NC(=O)c1ccc2[nH]nc(-c3ccncc3)c2c1)c1ccccc1Cl (stereo unspecified) | 3.5 | 16.7 | 35.9 | 
Cc1cc(-c2n[nH]c3ccc(C(=O)NC(C)c4c(Cl)cnc(Cl)c4Cl)cc23)ccn1 (stereo unspecified) | 0.713 | 13.2 | 22.2 | inhibition [3]: inactive; inhibition [4]: Dose-dependent effect
CC(CNC(=O)c1ccc2[nH]nc(-c3ccncc3)c2c1)OCc1ccccc1 (stereo unspecified) | 3.7 | 88.7 |  | 
CC(NC(=O)c1ccc2[nH]nc(-c3ccncc3)c2c1)c1cccc(Cl)c1 (stereo unspecified) | 0.9 | 53.1 | 154 | IC50 (Ephrin type-A receptor 2): > 1000 nM; IC50 [5]: > 1000 nM; IC50 [6]: > 1000 nM; IC50 [7]: > 1000 nM; IC50 [8]: > 1000 nM; IC50 [9]: > 1000 nM; IC50 [10]: > 1000 nM; IC50 [11]: > 1000 nM; IC50 [12]: > 1000 nM; IC50 [13]: > 1000 nM; IC50 [14]: > 1000 nM; IC50 [15]: > 1000 nM; IC50 [16]: > 1000 nM
O=C(NCc1ccccc1)c1ccc2[nH]nc(-c3ccncc3)c2c1 | 13.3 | 50.6 | 106 | 
O=C(NCc1ccccc1Cl)c1ccc2[nH]nc(-c3ccncc3)c2c1 | 2.8 | 31.3 | 46.3 | 
O=C(NCCc1ccccc1)c1ccc2[nH]nc(-c3ccncc3)c2c1 | 3.3 | 19.4 | 38.7 | 
O=C(NC(CO)c1cccc(Cl)c1)c1ccc2[nH]nc(-c3ccncc3)c2c1 (stereo unspecified) | 5.5 | 24.1 | 72.4 | Fabs [17]: 69%
CC(CNC(=O)c1ccc2[nH]nc(-c3ccncc3)c2c1)Oc1ccccc1 (stereo unspecified) | 6 | 38.6 | 128 | 
O=C(NCc1ccnc(Cl)c1)c1ccc2[nH]nc(-c3ccncc3)c2c1 | 9.4 | 22.5 | 26.4 | 
O=C(NC(CO)c1cccc(Cl)c1)c1ccc2[nH]nc(C3CCOCC3)c2c1 (stereo unspecified) | 11.5 | 297 |  | 
Cc1cc(-c2n[nH]c3ccc(C(=O)NC(CO)c4cccc(Cl)c4)cc23)ccn1 (stereo unspecified) | 2.4 | 17.9 | 53.4 | 
Cc1cc(-c2n[nH]c3ccc(C(=O)NC(C)c4cccc(Cl)c4)cc23)cc(C)n1 (stereo unspecified) | 3.8 | 110 |  | bioavailability [18]: 8%; AUC(0-t) at 24 h [19]: 162 ng·h/mL; clearance [20]: 42 mL/min/kg
O=C(NCc1c(Cl)cccc1Cl)c1ccc2[nH]nc(-c3ccncc3)c2c1 | 8.4 | 154 |  | 
CC(C)CC(NC(=O)c1ccc2[nH]nc(-c3ccncc3)c2c1)c1cccc(Cl)c1 (stereo unspecified) | 7.1 | > 2000 |  | 

SMILES | IC50 (HT-29) [µM] | IC50 [1] [nM] | IC50 [2] [nM] | further results
O=C(NC(CO)c1cc(Cl)cc(Cl)c1)c1ccc2[nH]nc(-c3ccncc3)c2c1 (stereo unspecified) | 3.4 | 61.1 |  | 
O=C(NCc1cccc(Cl)c1)c1ccc2[nH]nc(-c3ccncc3)c2c1 | 2.3 | 12.6 | 74.2 | 
O=C(NCc1ccc(Cl)c(F)c1Cl)c1ccc2[nH]nc(-c3ccncc3)c2c1 | 1.5 | 11.9 | 29.2 | 
CC(NC(=O)c1ccc2[nH]nc(-c3cc(F)c(O)c(F)c3)c2c1)c1cccc(Cl)c1 (stereo unspecified) | 3.3 | 22.4 | 32.3 | 
O=C(NCCOc1ccccc1)c1ccc2[nH]nc(-c3ccncc3)c2c1 | 9.1 | 63.3 |  | 
O=C(NCCc1cccc(Cl)c1)c1ccc2[nH]nc(-c3ccncc3)c2c1 | 15.3 | 425 |  | 
C[C@H](NC(=O)c1ccc2[nH]nc(-c3ccncc3)c2c1)c1cccc(Cl)c1 | 7.5 | 469 |  | 
C[C@@H](NC(=O)c1ccc2[nH]nc(-c3ccncc3)c2c1)c1cccc(Cl)c1 | 0.9 | 25.8 |  | Fabs [17]: 100%; AUC(0-t) at 24 h [21]: 56 ng·h/mL; inhibition [3]: inactive; inhibition [4]: Dose-dependent effect
O=C(NCc1c(Cl)cncc1Cl)c1ccc2[nH]nc(-c3ccncc3)c2c1 | 6.1 | 9.3 | 55.5 | Fabs [17]: 99%
Cc1cc(-c2n[nH]c3ccc(C(=O)N[C@@H](C)c4c(Cl)cccc4Cl)cc23)ccn1 | 0.48 | 9.5 | 19.4 | 
O=C(NC(CO)c1cccc(Cl)c1)c1ccc2[nH]nc(-c3ccccc3)c2c1 (stereo unspecified) | 6 | 276 |  | 
O=C(N[C@H](CO)c1cccc(Cl)c1)c1ccc2[nH]nc(-c3ccncc3)c2c1 | 1.9 | 7 | 26.3 | 
Nc1cc(-c2n[nH]c3ccc(C(=O)NC(CO)c4cccc(Cl)c4)cc23)ccn1 (stereo unspecified) | 20.9 | 15.6 | 66.9 | 
O=C(NC(CO)c1cccc(Cl)c1)c1ccc2[nH]nc(-c3ccc(O)c(F)c3)c2c1 (stereo unspecified) | 2.5 | 32.9 | 111 | 
CC(C)Nc1cc(-c2c[nH]c(C(=O)N[C@H](CO)c3ccccc3)c2)c(Cl)cn1 | 1.6 | 15.9 |  | 
Cc1cc(-c2n[nH]c3ccc(C(=O)NC(C)c4c(Cl)cncc4Cl)cc23)ccn1 (stereo unspecified) | 0.35 | 16.7 | 29.3 | IC50 (Ephrin type-A receptor 2): > 1000 nM; IC50 [5]: > 1000 nM; IC50 [6]: > 1000 nM; inhibition [3]: inactive; IC50 [7]: > 1000 nM; bioavailability [18]: 12%; IC50 [8]: > 1000 nM; IC50 [9]: > 1000 nM; inhibition [4]: Dose-dependent effect; IC50 [10]: > 1000 nM; IC50 [11]: > 1000 nM; IC50 [12]: > 1000 nM; IC50 [13]: > 1000 nM; IC50 [14]: > 1000 nM; AUC(0-t) at 24 h [19]: 61 ng·h/mL; clearance [20]: 163 mL/min/kg; IC50 [15]: > 1000 nM; IC50 [16]: > 1000 nM
O=C(NCCCc1ccccc1)c1ccc2[nH]nc(-c3ccncc3)c2c1 | 4.5 | 33.8 | 42.9 | 
Cc1cc(-c2n[nH]c3ccc(C(=O)N[C@H](C)c4c(Cl)cccc4Cl)cc23)ccn1 | 10.7 | 632 |  | 
Cc1cc(-c2n[nH]c3ccc(C(=O)NCc4c(Cl)cnc(Cl)c4Cl)cc23)ccn1 | 1.1 | 7.9 | 16.7 | 

Source: ChEMBL document CHEMBL3797088, “Discovery and structure activity relationship study of novel indazole amide inhibitors for extracellular signal-regulated kinase1/2 (ERK1/2)” (Bioorg Med Chem Lett, 2016)
